Common to all, as to assay type: biochemical
One assay concerns the target JAK2 (Homo sapiens (Human), UniProt O60674). Kind of assay: In vitro JAK kinase assay (TR-FRET), JAK2. As to conditions: catalytic domain aa 826-1132, GST-fusion; ATP 0.2 μM; peptide 20 nM; 30 minutes at room temperature. As to the method: (§1) Compounds were screened for their ability to inhibit JAK1, JAK2 and JAK3 using the assays as indicated below. […] The enzymatic activity was assayed using as substrate a biotinylated peptide, poly (GT)-Biotin (CisBio). […] The degree of phosphorylation was detected by TR-FRET (time-resolved fluorescence energy transfer). […] The enzymatic reactions took place for 30 minutes at room temperature. […] Incubate for 3 h and read on Victor 2V spectrofluorometer (Perkin Elmer) set to read fluorescence resonance energy transfer.
On the technique in general: TR-FRET usually uses a lanthanide donor and a delayed reading to cut background.

The next assay deals with JAK3 (Homo sapiens (Human), UniProt P52333). Kind of assay: In vitro JAK kinase assay (TR-FRET), JAK3. As to conditions: catalytic domain aa 795-1124, GST-fusion; ATP 0.6 μM; peptide 140 nM; 30 minutes at room temperature. As for the experimental part: as §1
JAK3, sequence (P52333 795-1124): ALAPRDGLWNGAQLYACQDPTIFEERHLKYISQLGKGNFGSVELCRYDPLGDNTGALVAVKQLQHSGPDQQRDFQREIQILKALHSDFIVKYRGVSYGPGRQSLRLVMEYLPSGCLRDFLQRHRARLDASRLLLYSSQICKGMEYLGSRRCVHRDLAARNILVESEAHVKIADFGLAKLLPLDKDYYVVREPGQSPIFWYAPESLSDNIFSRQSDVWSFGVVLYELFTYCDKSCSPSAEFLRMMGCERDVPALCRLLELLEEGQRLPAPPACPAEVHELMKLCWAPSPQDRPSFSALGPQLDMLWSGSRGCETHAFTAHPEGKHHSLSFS
Another assay deals with JAK1 (Homo sapiens (Human), UniProt P23458). The assay is described as follows: In vitro JAK kinase assay (TR-FRET), JAK1. As to conditions: catalytic domain aa 850-1154, GST-fusion; ATP 3 μM; peptide 60 nM; 30 minutes at room temperature. As to the method: as §1
JAK1, sequence (P23458 850-1154): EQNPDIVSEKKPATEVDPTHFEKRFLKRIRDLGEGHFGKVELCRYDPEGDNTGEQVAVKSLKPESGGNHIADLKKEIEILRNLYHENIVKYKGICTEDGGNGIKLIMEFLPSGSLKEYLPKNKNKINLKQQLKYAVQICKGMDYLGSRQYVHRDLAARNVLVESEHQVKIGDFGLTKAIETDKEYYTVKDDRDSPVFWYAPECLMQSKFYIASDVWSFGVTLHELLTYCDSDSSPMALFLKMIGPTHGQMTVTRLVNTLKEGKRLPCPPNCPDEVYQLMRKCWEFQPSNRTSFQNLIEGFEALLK

JAK2, sequence (O60674 826-1132): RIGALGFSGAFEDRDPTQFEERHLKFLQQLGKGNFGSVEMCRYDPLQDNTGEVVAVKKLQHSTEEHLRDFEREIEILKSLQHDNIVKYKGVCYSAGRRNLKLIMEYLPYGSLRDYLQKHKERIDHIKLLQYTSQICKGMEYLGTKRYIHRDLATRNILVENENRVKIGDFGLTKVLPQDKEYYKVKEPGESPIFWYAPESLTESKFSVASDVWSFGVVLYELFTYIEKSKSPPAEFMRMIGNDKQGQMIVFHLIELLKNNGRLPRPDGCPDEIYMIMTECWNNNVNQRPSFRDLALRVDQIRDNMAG

Regarding `CCOC(=O)c1nc(-c2cnn3ccccc23)nc(N[C@@H]2CCCN(C(=O)CO)C2)c1F` [Example 46, Ethyl 5-fluoro-6-{[(3R)-1-glycoloylpiperidin-3-yl]amino}-2-pyrazolo[1,5-a]pyridin-3-ylpyrimidine-4-carboxylate], the IC50 – broadly, the point on the concentration scale where inhibition reaches its midpoint – stood at 3 nM at JAK2, 4 nM at JAK3 and 10 nM against JAK1.

For the compound `O=C(CO)N1CCC[C@@H](Nc2nc(-c3cnn4ccccc34)nc(OCC(F)F)c2F)C1` [Example 50, 2-((3R)-3-{[6-(2,2-Difluoroethoxy)-5-fluoro-2-pyrazolo[1,5-a]pyridin-3-ylpyrimidin-4-yl]amino}piperidin-1-yl)-2-oxoethanol], the values for the IC50 against JAK2, against JAK3 and at JAK1 were 3 nM, 9 nM and 15 nM, respectively.

Regarding `N#CCC(=O)N1CCC[C@@H](Nc2cc(-c3cncc(O)c3)nc(-c3cnn4ccccc34)n2)C1` [Example 106, 3-((3R)-3-{[6-(5-Hydroxypyridin-3-yl)-2-pyrazolo[1,5-a]pyridin-3-ylpyrimidin-4-yl]amino}piperidin-1-yl)-3-oxopropanenitrile], the IC50 against JAK2, against JAK3 and on JAK1 was 1 nM each time.

On to `O=C(CO)N1CCC[C@@H](Nc2nc(-c3cnn4ccccc34)nc(OCC(F)(F)F)c2F)C1` [Example 49, 2-((3R)-3-{[5-Fluoro-2-pyrazolo[1,5-a]pyridin-3-yl-6-(2,2,2-trifluoroethoxy)pyrimidin-4-yl]amino}piperidin-1-yl)-2-oxoethanol], for which the IC50 at JAK2 was determined as 10 nM; against JAK3, 14 nM; against JAK1 it was 35 nM.

For the compound `C[C@@H](CO)Oc1nc(-c2cnn3ccccc23)nc(N[C@@H]2CCCN(C(=O)CO)C2)c1F` [Example 59, (2S)-2-[(5-Fluoro-6-{[(3R)-1-glycoloylpiperidin-3-yl]amino}-2-pyrazolo[1,5-a]pyridin-3-ylpyrimidin-4-yl)oxy]propan-1-ol], the IC50 on JAK2 stood at 3 nM; against JAK3, 4 nM; against JAK1, 29 nM.

As to `C[C@H](CO)Oc1nc(-c2cnn3ccccc23)nc(N[C@@H]2CCCN(C(=O)CO)C2)c1F` [Example 61, (2R)-2-[(5-Fluoro-6-{[(3R)-1-glycoloylpiperidin-3-yl]amino}-2-pyrazolo[1,5-a]pyridin-3-ylpyrimidin-4-yl)oxy]propan-1-ol], the half-maximal inhibitory concentration (IC50) amounted to 10 nM against JAK2, 8 nM against JAK3 and 58 nM against JAK1.

As to `N#CCC(=O)N1CCC[C@@H](Nc2cc(OCCO)nc(-c3cnn4ccccc34)n2)C1` [Example 103, 3-((3R)-3-{[6-(2-Hydroxyethoxy)-2-pyrazolo[1,5-a]pyridin-3-ylpyrimidin-4-yl]amino}piperidin-1-yl)-3-oxopropanenitrile], the half-maximal inhibitory concentration (IC50) against JAK2, against JAK3 and against JAK1 was 1 nM in each case.

On to `N#CCC(=O)N1CCC[C@@H](Nc2nc(-c3cnn4ccccc34)nc(-c3ccnc(CO)c3)c2F)C1` [Example 78, 3-[(3R)-3-({5-Fluoro-6-[2-(hydroxymethyl)pyridin-4-yl]-2-pyrazolo[1,5-a]pyridin-3-ylpyrimidin-4-yl}amino)piperidin-1-yl]-3-oxopropanenitrile], for which the IC50 was determined as 0.5 nM at JAK2, 1 nM against JAK3 and 2 nM against JAK1.

With `N#CCC(=O)N1CCC[C@@H](Nc2nc(-c3cnn4ccccc34)nc(-c3ccc(CO)nc3)c2F)C1` [Example 85, 3-[(3R)-3-({5-Fluoro-6-[6-(hydroxymethyl)pyridin-3-yl]-2-pyrazolo[1,5-a]pyridin-3-ylpyrimidin-4-yl}amino)piperidin-1-yl]-3-oxopropanenitrile], the IC50 was 1 nM at JAK2, 4 nM against JAK3 and 1 nM at JAK1.

Regarding `Cc1cc(-c2nc(-c3cnn4ccccc34)nc(N[C@@H]3CCCN(C(=O)CO)C3)c2F)ccn1` [Example 34, 2-((3R)-3-{[5-Fluoro-6-(2-methylpyridin-4-yl)-2-pyrazolo[1,5-a]pyridin-3-ylpyrimidin-4-yl]amino}piperidin-1-yl)-2-oxoethanol], the IC50 against JAK2 worked out at 0.2 nM; against JAK3 it was 4 nM; against JAK1 it was 2 nM.

For the compound `O=C(CO)N1CCC[C@@H](Nc2nc(-c3cnn4ccccc34)nc(OCCCO)c2F)C1` [Example 41, 3-[(5-Fluoro-6-{[(3R)-1-glycoloylpiperidin-3-yl]amino}-2-pyrazolo[1,5-a]pyridin-3-ylpyrimidin-4-yl)oxy]propan-1-ol], the results for the IC50 on JAK2, on JAK3 and at JAK1 were 1 nM, 3 nM and 8 nM, respectively.

`N#CC[C@H]1CC[C@H](Nc2nc(-c3cnn4ccccc34)nc(N3CCC(O)CC3)c2F)CC1` [Example 1, (Trans-4-{[5-fluoro-6-(4-hydroxypiperidin-1-yl)-2-pyrazolo[1,5-a]pyridin-3-ylpyrimidin-4-yl]amino}cyclohexyl)acetonitrile]: the figures for the IC50 against JAK2, against JAK3 and at JAK1 were 0.5 nM, 3 nM and 12 nM, respectively.

On to `O=C(CO)N1CCC[C@@H](Oc2nc(-c3cnn4ccccc34)nc(-c3ccnc(CO)c3)c2F)C1` [Example 74, 2-[(3R)-3-({5-Fluoro-6-[2-(hydroxymethyl)pyridin-4-yl]-2-pyrazolo[1,5-a]pyridin-3-ylpyrimidin-4-yl}oxy)piperidin-1-yl]-2-oxoethanol], for which the 50% inhibitory concentration (IC50) against JAK2 came to 1 nM; against JAK3 it was 4 nM; against JAK1 it was 3 nM.

On to `Cc1ccc(-c2cc(N[C@@H]3CCCN(C(=O)CC#N)C3)nc(-c3cnn4ccccc34)n2)cn1` [Example 100, 3-((3R)-3-{[6-(6-Methylpyridin-3-yl)-2-pyrazolo[1,5-a]pyridin-3-ylpyrimidin-4-yl]amino}piperidin-1-yl)-3-oxopropanenitrile], for which the IC50 against JAK2 turned out to be 2 nM; against JAK3, 2 nM; on JAK1 it was 0.5 nM.

Consider `N#CCC(=O)N1CCC[C@@H](Oc2nc(-c3cnn4ccccc34)nc(NCCO)c2F)C1` [Example 70, 3-[(3R)-3-({5-Fluoro-6-[(2-hydroxyethyl)amino]-2-pyrazolo[1,5-a]pyridin-3-ylpyrimidin-4-yl}oxy)piperidin-1-yl]-3-oxopropanenitrile], for which the IC50 on JAK2 came out at 3 nM; against JAK3, 8 nM; on JAK1, 28 nM.

For `N#CCC(=O)N1CCC[C@@H](Nc2nc(-c3cnn4ccccc34)nc(-c3ccc(N)nc3)c2F)C1` [Example 18, 3-((3R)-3-{[6-(6-Aminopyridin-3-yl)-5-fluoro-2-pyrazolo[1,5-a]pyridin-3-ylpyrimidin-4-yl]amino}piperidin-1-yl)-3-oxopropanenitrile], the IC50 was 0.6 nM on JAK2, 2 nM at JAK3 and 1 nM against JAK1.

As to `C[C@H](Nc1nc(-c2cnn3ccccc23)nc(OCCO)c1F)c1ncc(F)cn1` [Example 12, 2-[(5-Fluoro-6-{[(1S)-1-(5-fluoropyrimidin-2-yl)ethyl]amino}-2-pyrazolo[1,5-a]pyridin-3-ylpyrimidin-4-yl)oxy]ethanol], the IC50 against JAK2 is 0.5 nM; on JAK3 it was 4 nM; against JAK1, 4 nM.

Consider `C[C@H](O)COc1nc(-c2cnn3ccccc23)nc(O[C@@H]2CCCN(C(=O)CO)C2)c1F` [Example 90, (2S)-1-[(5-Fluoro-6-{[(3R)-1-glycoloylpiperidin-3-yl]oxy}-2-pyrazolo[1,5-a]pyridin-3-ylpyrimidin-4-yl)oxy]propan-2-ol], for which the IC50 against JAK2 came out at 1 nM; against JAK3, 4 nM; against JAK1, 14 nM.

Take `CCOc1nc(-c2cnn3ccccc23)nc(N[C@@H]2CCCN(C(=O)CO)C2)c1F` [Example 45, 2-{(3R)-3-[(6-Ethoxy-5-fluoro-2-pyrazolo[1,5-a]pyridin-3-ylpyrimidin-4-yl)amino]piperidin-1-yl}-2-oxoethanol]: the results for the IC50 on JAK2, at JAK3 and on JAK1 were 1 nM, 3 nM and 4 nM, respectively.

Take `Cc1c(N[C@@H]2CCCN(C(=O)CO)C2)nc(-c2cnn3ccccc23)nc1N1CCOCC1` [Example 26, 2-{(3R)-3-[(5-Methyl-6-morpholin-4-yl-2-pyrazolo[1,5-a]pyridin-3-ylpyrimidin-4-yl)amino]piperidin-1-yl}-2-oxoethanol]: the IC50 is 4 nM at JAK2, 30 nM on JAK3 and 26 nM against JAK1.

For `COc1nc(-c2cnn3ccccc23)nc(N[C@@H]2CCCN(c3cnc(C#N)cn3)C2)c1F` [Example 56, 5-{(3R)-3-[(5-fluoro-6-methoxy-2-pyrazolo[1,5-a]pyridin-3-ylpyrimidin-4-yl)amino]piperidin-1-yl}pyrazine-2-carbonitrile], the IC50 at JAK2 worked out at 7 nM; on JAK3 it was 8 nM; at JAK1, 43 nM.

For `COCCOc1nc(-c2cnn3ccccc23)nc(N[C@@H]2CCCN(C(=O)CO)C2)c1C` [Example 27, 2-((3R)-3-{[6-(2-Methoxyethoxy)-5-methyl-2-pyrazolo[1,5-a]pyridin-3-ylpyrimidin-4-yl]amino}piperidin-1-yl)-2-oxoethanol], the concentration for half-maximal inhibition (IC50) against JAK2 was 0.7 nM; on JAK3, 3 nM; against JAK1, 19 nM.

Turning to `Cc1cc(-c2nc(-c3cnn4ccccc34)nc(N(C)[C@@H]3CCCN(C(=O)CO)C3)c2F)ccn1` [Example 77, 2-{(3R)-3-[[5-Fluoro-6-(2-methylpyridin-4-yl)-2-pyrazolo[1,5-a]pyridin-3-ylpyrimidin-4-yl](methyl)amino]piperidin-1-yl}-2-oxoethanol], the IC50 on JAK2 is 2 nM; at JAK3 it was 23 nM; against JAK1, 3 nM.

Values taken from US10759793B2, “2-(pyrazolopyridin-3-yl)pyrimidine derivatives as JAK inhibitors” (ALMIRALL, S.A., priority 2015, dated 2020).
